Measured values from patent US9409922B2, “Imidazopyridine macrocycles as inhibitors of human immunodeficiency virus replication” (priority 2014, dated 2016).

System: NL-RLuc virus
Test: Inhibition of HIV replication: NL-RLuc reporter virus in MT-2 cells, luciferase readout
Assay type: cell-based
Conditions: MT-2 cells infected with NL-RLuc virus, 5 days of incubation, 10% FBS, at least 2 experiments
Text: Inhibition of HIV Replication:
A recombinant NL-RLuc proviral clone was constructed in which a section of the nef gene from NL4-3 was replaced with the Renilla Luciferase gene. This virus is fully infectious and can undergo multiple cycles of replication in cell culture. In addition, the luciferous reporter provides a simple and easy method for quantitating the extent of virus growth and consequently, the antiviral activity of test compounds. The plasmid pNLRLuc contains the proviral NL-Rluc DNA cloned into pUC 18 at the PvuII site. The NL-RLuc virus was prepared by transfection of 293T cells with the plasmid pNLRLuc. Transfections were performed using the LipofectAMINE PLUS kit from Invitrogen (Carlsbad, Calif.) according to the manufacturer and the virus generated was titered in MT-2 cells. For susceptibility analyses, the titrated virus was used to infect MT-2 cells in the presence of compound, and after 5 days of incubation, cells were processed and quantitated for virus growth by the amount of expressed luciferase. Assay media was RPMI 1640 supplemented with 10% heat inactivated fetal bovine serum (FBS), 100 units/ml penicillin G/100 units/ml streptomycin, 10 mM HEPES buffer pH 7.55 and 2 mM L-glutamine. The results from at least 2 experiments were used to calculate the EC50 values. Luciferase was quantitated using the Dual Luciferase kit from Promega (Madison, Wis.). Susceptibility of viruses to compounds was determined by incubation in the presence of serial dilutions of the compound. The 50% effective concentration (EC50) was calculated by using the exponential form of the median effect equation where (Fa)=1/[1+(ED50/drug conc.)^m](Johnson V A, Byington R T. Infectivity Assay. In Techniques in HIV Research. ed. Aldovini A, Walker B D. 71-76. New York: Stockton Press. 1990).

[1] = Human immunodeficiency virus 1, MT2, 120 h

Row | SMILES | EC50 [1] | EC50
1 | C=Cc1c(C)c([C@H](OC(C)(C)C)C(=O)O)c2n3cc(nc13)-c1cccc(c1)-c1cc(F)ccc1O[C@@H](C)CCCCOC1(C)CCN2CC1 [Example 38, (2S)-2-(tert-Butoxy)-2-[(22S)-5-ethenyl-17-fluoro-4,22,28-trimethyl-21,27-dioxa-1,7,34-triazahexacyclo[26.2.2.1^6,^9.1^10,^14.0^2,^7.0^15,^20]tetratriaconta-2,4,6(34),8,10(33),11,13,15(20),16,18-decaen-3-yl]acetic acid] | 93 nM | 
2 | Cc1c([C@H](OC(C)(C)C)C(=O)O)c2n3cc(nc3c1-c1ccncc1)-c1cccc(c1)-c1cc(F)ccc1O[C@@H](C)CCCCOC1(C)CCN2CC1 [Example 39, (2S)-2-(tert-Butoxy)-2-[(22S)-17-fluoro-4,22,28-trimethyl-5-(pyridin-4-yl)-21,27-dioxa-1,7,34-triazahexacyclo[26.2.2.1^6,^9.1^10,^14.0^2,^7.0^15,^20]tetratriaconta-2,4,6(34),8,10(33),11,13,15(20),16,18-decaen-3-yl]acetic acid] | 12 nM | 
3 | Cc1c([C@H](OC(C)(C)C)C(=O)O)c2n3cc(nc3c1C)-c1cccc(c1)-c1cc(F)c(F)cc1O[C@@H](C)CCCCOC1(C)CCN2CC1 [Example 41, (2S)-2-(tert-Butoxy)-2-[(22S)-17,18-difluoro-4,5,22,28-tetramethyl-21,27-dioxa-1,7,34-triazahexacyclo[26.2.2.1^6,^9.1^10,^14.0^2,^7.0^15,^20]tetratriaconta-2,4,6(34),8,10(33),11,13,15(20),16,18-decaen-3-yl]acetic acid] | 13 nM | 
4 | Cc1c([C@H](OC(C)(C)C)C(=O)O)c2n3cc(nc3c1C)-c1cccc(c1)-c1cc(OC(F)(F)F)ccc1O[C@@H](C)CCCCOC1(C)CCN2CC1 [Example 42, (2S)-2-(tert-Butoxy)-2-[(22S)-4,5,22,28-tetramethyl-17-(trifluoromethoxy)-21,27-dioxa-1,7,34-triazahexacyclo[26.2.2.1^6,^9.1^10,^14.0^2,^7.0^15,^20]tetratriaconta-2,4,6(34),8,10(33),11,13,15(20),16,18-decaen-3-yl]acetic acid] | 60 nM | 
5 | Cc1c([C@H](OC(C)(C)C)C(=O)O)c2n3cc(nc3c1C)-c1cccc(c1)-c1c(F)cc(F)cc1O[C@@H](C)CCCCOC1(C)CCN2CC1 [Example 43, (2S)-2-(tert-Butoxy)-2-[(22S)-16,18-difluoro-4,5,22,28-tetramethyl-21,27-dioxa-1,7,34-triazahexacyclo[26.2.2.1^6,^9.1^10,^14.0^2,^7.0^15,^20]tetratriaconta-2,4,6(34),8,10(33),11,13,15(20),16,18-decaen-3-yl]acetic acid] |  | 11 nM
6 | Cc1c([C@H](OC(C)(C)C)C(=O)O)c2n3cc(nc3c1C)-c1cccc(c1)-c1c(F)cc(F)cc1O[C@@H](C)CCCCOC1(C)CCN2CC1 [Example 44, (2S)-2-(tert-butoxy)-2-[(22S)-16,18-difluoro-4,5,22,28-tetramethyl-21,27-dioxa-1,7,34-triazahexacyclo[26.2.2.1^6,^9.1^10,^14.0^2,^7.0^15,^20]tetratriaconta-2,4,6(34),8,10(33),11,13,15(20),16,18-decaen-3-yl]acetic acid] |  | 331 nM
7 | Cc1c([C@H](OC(C)(C)C)C(=O)O)c2n3cc(nc3c1C)-c1cccc(c1)-c1cc(F)cc(F)c1O[C@@H](C)CCCCOC1(C)CCN2CC1 [Example 45, (2S)-2-(tert-Butoxy)-2-[(22S)-17,19-difluoro-4,5,22,28-tetramethyl-21,27-dioxa-1,7,34-triazahexacyclo[26.2.2.1^6,^9.1^10,^14.0^2,^7.0^15,^20]tetratriaconta-2,4,6(34),8,10(33),11,13,15(20),16,18-decaen-3-yl]acetic acid] | 47 nM | 
